Experimental data published in ChEMBL document CHEMBL1201862, “PubChem BioAssay data set” (2004).
Active and inactive are the calls of the source.

Tests used:
[1] = biological target: Peroxisome proliferator-activated receptor gamma/Nuclear receptor coactivator 1 (Homo sapiens, UniProt P37231); experiment: (§1) TR-FRET dose response biochemical High Throughput Screening assay for agonists of the steroid receptor coactivator 1 (SRC-1) recruitment by the peroxisome proliferator-activated receptor gamma (PPAR gamma): non-selective agonists. [Related pubchem assays (depositor defined):AID1300, AID1808, AID504735, AID631]; type: protein assay
[2] = biological target: Peroxisome proliferator-activated receptor gamma/Nuclear receptor coactivator 3 (Homo sapiens, UniProt P37231); experiment: as §1, with “3 (SRC-3)” for “1 (SRC-1)”, “assays: 1301 (Confirmation screen.), 1048 (Primary screen.)]” for “assays (depositor defined):AID1300, AID1808, AID504735, AID631]”; type: functional
[3] = biological target: Peroxisome proliferator-activated receptor gamma/Nuclear receptor coactivator 2 (Homo sapiens, UniProt P37231); experiment: TR-FRET dose response biochemical High Throughput Screening assay for agonists of the steroid receptor coactivator 2 (SRC-2) recruitment by the peroxisome proliferator-activated receptor gamma (PPAR gamma): non-selective agonists. [Related pubchem assays: 1297, 1032 ]; type: functional
Melanocortin receptor 4 = Melanocortin receptor 4 (Homo sapiens, UniProt P32245); experiment: inhibitors of MC4R cAMP signaling – cell-based, TR-FRET, biased antagonists, dose response (AID 602298); type: functional;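 note: antagonist potency against agonist-stimulated cAMP production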
[4] = cAMP pathway inhibition in counterscreen cell line – TR-FRET cAMP detection, counter-screen for MC4R biased antagonist project, dose response (AID 602305); type: functional, cell-based;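 note: U2OS cells stimulated with forskolin near its EC80 as the cAMP inducer; potency is for inhibition of forskolin-stimulated cAMP signaling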
[5] = tested on: Streptococcus sp. 'group A'; experiment: Streptococcus pyogenes SK(-)GAS viability under kanamycin – luminescence, BacTiterGlo, confirmation, counter-screen for streptokinase expression inhibitor project, dose response (AID 1900); type: functional, organism-based
Streptokinase A = biological target: T1, Streptokinase A (Streptococcus pyogenes serotype M1, UniProt P10520); experiment: viability-normalized secreted streptokinase activity reduction – plasminogen activation absorbance, OD405, dose response (AID 1914); type: functional, Streptococcus pyogenes M1 GAS;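 note: secreted streptokinase activity via plasminogen activation per viability signal from cell pellet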
T1 sequence (P10520 whole entry): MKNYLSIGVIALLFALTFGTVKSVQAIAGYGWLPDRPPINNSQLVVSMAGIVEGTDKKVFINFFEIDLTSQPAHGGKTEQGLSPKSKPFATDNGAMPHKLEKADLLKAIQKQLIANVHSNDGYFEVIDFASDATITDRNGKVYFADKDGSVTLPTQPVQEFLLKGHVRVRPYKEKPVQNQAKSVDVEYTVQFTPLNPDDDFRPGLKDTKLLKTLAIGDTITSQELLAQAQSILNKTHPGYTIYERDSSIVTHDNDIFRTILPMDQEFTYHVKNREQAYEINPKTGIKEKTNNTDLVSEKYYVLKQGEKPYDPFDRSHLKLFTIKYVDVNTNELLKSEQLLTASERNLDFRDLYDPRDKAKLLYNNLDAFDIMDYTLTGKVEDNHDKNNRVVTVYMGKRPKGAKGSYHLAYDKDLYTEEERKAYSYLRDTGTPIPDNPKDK

Streptococcus = experiment: GAS UMAA2166 growth inhibition – luminescence, BacTiterGlo, counter-screen for streptokinase expression inhibitor project, dose response (AID 1915); type: functional, organism-based;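 note: potency for reduction of bacterial viability or growth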
[6] = biological target: T2, Short transient receptor potential channel 4 (Mus musculus, UniProt Q9QUQ5); experiment: block of DAMGO-driven TRPC4 calcium entry – cell-based, HEK293 TRPC4/mu-opioid, Fluo-4 calcium, dose response (AID 434942); type: functional;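 note: potency of inhibitors blocking the TRPC4 calcium response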
T2 sequence (Q9QUQ5 whole entry): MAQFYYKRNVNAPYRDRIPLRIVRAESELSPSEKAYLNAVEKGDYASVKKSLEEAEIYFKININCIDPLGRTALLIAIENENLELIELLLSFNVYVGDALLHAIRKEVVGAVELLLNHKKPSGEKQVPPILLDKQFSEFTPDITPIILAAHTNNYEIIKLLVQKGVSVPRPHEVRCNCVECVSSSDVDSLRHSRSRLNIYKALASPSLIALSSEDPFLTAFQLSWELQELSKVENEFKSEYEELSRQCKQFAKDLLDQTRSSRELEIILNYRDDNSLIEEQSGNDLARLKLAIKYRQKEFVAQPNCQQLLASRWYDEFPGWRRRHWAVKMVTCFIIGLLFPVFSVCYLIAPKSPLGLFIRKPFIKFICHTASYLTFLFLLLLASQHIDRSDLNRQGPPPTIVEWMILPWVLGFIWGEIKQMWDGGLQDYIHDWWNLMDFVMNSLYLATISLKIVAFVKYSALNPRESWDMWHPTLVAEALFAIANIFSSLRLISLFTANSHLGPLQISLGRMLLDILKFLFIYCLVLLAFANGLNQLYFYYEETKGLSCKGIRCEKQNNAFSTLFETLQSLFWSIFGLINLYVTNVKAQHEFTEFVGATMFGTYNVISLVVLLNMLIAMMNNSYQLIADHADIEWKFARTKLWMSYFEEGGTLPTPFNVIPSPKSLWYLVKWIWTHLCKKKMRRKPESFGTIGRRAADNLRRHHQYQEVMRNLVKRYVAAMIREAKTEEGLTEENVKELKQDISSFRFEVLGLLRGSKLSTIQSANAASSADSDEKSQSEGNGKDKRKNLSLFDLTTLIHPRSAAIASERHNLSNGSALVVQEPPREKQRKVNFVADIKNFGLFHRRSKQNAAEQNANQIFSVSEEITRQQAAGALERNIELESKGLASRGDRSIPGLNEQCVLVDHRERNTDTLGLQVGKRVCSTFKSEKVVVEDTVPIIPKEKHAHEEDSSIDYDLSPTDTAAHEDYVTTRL

[7] = biological target: T2, Short transient receptor potential channel 4; experiment: calcium entry via TRPC4 opening agents – cell-based, HEK293 TRPC4/mu-opioid, Fluo-4 calcium, dose response (AID 434937); type: functional
[8] = luciferase reporter signal suppression in cells – H4 neuroglioma cells, luminescence, dose response (AID 1990); type: functional, cell-based
[9] = Luminescence Cell-Based Dose Response HTS to Identify Inhibitors of 5'UTR Stem-Loop Driven Prion Protein mRNA Translation in H4 Neuroglioblastoma Cells. [Related pubchem assays: 1827 (Project Summary), 1813 (Primary HTS)]; type: functional
[10] = alpha-synuclein stem-loop luciferase translation blockers – H4 neuroglioma cells, luminescence, confirmation (AID 1988); type: functional, cell-based
[11] = HEK-293T viability loss after treatment – luminescence, T-cell screen hits, cytotoxicity control for TCR NF-kB inhibitor project, dose response (AID 489026); type: functional, cell-based;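 note: cells exposed to compound about 14 hours before the viability readout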

Chain of Peroxisome proliferator-activated receptor gamma/Nuclear receptor coactivator 2 (P37231 whole entry): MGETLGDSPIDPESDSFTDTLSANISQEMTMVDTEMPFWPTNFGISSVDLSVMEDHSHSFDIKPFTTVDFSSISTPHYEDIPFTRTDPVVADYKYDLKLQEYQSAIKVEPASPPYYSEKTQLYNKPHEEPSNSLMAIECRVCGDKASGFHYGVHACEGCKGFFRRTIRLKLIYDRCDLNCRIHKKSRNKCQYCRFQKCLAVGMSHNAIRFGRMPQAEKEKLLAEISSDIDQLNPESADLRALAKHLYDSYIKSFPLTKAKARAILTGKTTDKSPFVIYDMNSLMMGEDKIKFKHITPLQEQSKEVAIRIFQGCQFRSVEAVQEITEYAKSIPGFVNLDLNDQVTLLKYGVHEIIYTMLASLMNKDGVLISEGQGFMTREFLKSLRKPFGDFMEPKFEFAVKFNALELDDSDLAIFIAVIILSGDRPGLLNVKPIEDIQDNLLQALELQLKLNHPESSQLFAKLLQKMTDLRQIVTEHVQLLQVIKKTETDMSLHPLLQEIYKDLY
Chain of Peroxisome proliferator-activated receptor gamma/Nuclear receptor coactivator 2 (Q15596 whole entry, further chain): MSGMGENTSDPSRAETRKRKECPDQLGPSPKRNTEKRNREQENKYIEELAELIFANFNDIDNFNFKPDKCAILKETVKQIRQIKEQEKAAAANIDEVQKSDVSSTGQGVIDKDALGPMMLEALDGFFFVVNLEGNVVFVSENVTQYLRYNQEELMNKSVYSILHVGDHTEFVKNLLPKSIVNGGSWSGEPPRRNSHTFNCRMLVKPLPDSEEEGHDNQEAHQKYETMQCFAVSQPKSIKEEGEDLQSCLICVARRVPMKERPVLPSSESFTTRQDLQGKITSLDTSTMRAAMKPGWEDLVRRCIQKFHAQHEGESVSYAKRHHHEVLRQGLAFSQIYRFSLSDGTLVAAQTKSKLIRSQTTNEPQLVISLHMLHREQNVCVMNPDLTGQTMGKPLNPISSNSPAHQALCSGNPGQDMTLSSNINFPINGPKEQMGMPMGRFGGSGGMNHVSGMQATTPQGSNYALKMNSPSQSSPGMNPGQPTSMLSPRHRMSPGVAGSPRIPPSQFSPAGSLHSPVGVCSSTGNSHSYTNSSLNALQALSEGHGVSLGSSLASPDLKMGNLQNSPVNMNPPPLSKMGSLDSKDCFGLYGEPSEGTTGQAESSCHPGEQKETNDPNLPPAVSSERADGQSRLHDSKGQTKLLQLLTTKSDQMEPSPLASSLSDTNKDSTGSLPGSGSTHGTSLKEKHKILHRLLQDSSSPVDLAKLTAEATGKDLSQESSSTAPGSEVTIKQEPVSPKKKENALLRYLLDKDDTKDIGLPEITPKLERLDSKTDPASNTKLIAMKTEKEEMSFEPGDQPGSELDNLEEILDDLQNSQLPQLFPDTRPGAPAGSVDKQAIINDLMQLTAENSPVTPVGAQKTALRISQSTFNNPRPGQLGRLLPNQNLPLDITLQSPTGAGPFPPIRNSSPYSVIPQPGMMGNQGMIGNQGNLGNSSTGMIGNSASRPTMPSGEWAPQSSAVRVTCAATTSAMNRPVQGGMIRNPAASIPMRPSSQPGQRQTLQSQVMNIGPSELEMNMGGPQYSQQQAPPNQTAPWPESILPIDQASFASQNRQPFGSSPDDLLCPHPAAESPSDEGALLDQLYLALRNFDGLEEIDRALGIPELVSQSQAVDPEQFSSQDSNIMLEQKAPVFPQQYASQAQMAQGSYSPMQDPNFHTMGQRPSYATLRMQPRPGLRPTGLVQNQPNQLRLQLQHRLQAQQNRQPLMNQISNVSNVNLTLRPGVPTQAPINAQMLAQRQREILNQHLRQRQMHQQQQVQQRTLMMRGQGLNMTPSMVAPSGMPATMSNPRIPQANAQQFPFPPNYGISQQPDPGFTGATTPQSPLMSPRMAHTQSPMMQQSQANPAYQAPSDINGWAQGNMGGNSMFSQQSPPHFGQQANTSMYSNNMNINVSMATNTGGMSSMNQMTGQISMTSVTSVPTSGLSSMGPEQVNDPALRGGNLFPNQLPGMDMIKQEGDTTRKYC
Chain of Peroxisome proliferator-activated receptor gamma/Nuclear receptor coactivator 3 (P37231 whole entry): as the sequence (P37231 whole entry) above
Chain of Peroxisome proliferator-activated receptor gamma/Nuclear receptor coactivator 3 (Q9Y6Q9 whole entry, further chain): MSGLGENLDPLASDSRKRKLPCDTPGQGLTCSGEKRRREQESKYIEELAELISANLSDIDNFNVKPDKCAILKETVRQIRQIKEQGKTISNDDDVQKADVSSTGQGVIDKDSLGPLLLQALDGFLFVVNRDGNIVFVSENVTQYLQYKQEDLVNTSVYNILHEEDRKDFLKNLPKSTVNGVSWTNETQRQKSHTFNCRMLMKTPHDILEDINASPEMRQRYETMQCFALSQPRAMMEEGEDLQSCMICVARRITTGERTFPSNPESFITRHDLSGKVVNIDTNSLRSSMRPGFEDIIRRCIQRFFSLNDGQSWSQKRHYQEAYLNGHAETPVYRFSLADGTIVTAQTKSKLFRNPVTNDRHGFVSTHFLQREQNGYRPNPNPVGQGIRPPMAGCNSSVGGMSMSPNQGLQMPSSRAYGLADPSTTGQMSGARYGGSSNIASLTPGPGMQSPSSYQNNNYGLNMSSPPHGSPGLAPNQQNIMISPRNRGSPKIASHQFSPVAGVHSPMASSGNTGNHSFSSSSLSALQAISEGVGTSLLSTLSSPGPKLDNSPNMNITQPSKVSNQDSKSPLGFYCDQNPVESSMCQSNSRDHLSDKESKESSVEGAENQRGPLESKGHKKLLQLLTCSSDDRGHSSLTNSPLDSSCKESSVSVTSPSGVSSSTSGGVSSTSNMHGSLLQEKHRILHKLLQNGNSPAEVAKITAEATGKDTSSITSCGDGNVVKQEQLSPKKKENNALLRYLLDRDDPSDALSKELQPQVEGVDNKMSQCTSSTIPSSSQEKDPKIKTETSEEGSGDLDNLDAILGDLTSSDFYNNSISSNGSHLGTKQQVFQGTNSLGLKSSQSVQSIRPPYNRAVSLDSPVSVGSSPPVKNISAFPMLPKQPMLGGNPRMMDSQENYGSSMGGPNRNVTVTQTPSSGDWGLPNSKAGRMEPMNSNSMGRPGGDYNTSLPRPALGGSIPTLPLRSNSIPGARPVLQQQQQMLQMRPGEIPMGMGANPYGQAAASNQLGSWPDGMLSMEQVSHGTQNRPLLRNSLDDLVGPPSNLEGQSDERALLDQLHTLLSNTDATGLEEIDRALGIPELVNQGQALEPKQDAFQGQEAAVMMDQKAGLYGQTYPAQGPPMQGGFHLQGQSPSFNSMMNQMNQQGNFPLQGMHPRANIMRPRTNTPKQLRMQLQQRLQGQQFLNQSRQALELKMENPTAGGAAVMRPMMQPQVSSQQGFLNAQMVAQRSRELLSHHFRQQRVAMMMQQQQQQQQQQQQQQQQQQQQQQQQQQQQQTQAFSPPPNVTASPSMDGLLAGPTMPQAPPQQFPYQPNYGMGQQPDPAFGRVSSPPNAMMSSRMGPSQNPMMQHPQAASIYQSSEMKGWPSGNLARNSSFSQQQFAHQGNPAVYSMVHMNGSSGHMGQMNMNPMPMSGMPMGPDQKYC
Chain of Melanocortin receptor 4 (P32245 whole entry): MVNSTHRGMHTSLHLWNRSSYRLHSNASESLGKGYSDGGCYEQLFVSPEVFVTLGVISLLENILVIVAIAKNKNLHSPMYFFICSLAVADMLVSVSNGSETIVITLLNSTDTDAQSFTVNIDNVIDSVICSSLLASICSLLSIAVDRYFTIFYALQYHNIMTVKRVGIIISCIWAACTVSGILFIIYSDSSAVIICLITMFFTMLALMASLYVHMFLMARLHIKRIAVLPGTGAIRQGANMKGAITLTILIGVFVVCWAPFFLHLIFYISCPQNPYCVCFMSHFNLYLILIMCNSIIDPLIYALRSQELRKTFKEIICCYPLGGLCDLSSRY

SMILES | EC50 [1] | EC50 [2] | EC50 [3] | EC50 [6] | further results
CSc1oc(-c2ccccc2)nc1S(=O)(=O)c1ccc(C)cc1 | > 79.4 µM (inactive) | > 79.4 µM (not active) | > 79.4 µM (not active) |  | 
O=C(Nc1nccs1)c1cc(S(=O)(=O)N2CCOCC2)c(Cl)cc1Cl |  |  |  |  | IC50 (Melanocortin receptor 4): > 64.6 µM (inactive); IC50 [4]: > 64.6 µM (inactive)
CSc1c(SCc2ccccc2)cnn(Cc2ccccc2)c1=O | 2.68 µM (active) | > 79.4 µM (not active) | 8.09 µM (active) |  | EC50 [5]: 3.38 µM (active); EC50 (Streptokinase A): > 150 µM (not active); EC50 (Streptococcus): 34.3 µM (active)
COc1ccc2nc(NS(=O)(=O)c3ccc(NC(C)=O)cc3)sc2c1 |  |  |  | 3.35 µM (active) | EC50 [7]: 3.76 µM (active)
Cc1cc(NCc2ccccc2)nc(N2CCOCC2)n1 |  |  |  | 4.73 µM (active) | 
CCCc1cc(O)nc(SCC(=O)Nc2sc3c(c2C#N)CCCC3)n1 |  |  |  | 4.73 µM (active) | 
C=CCSC1=Nc2cc(OC)c(OC)cc2C2=NC(=O)CN12 | > 79.4 µM (inactive) | > 79.4 µM (not active) | > 79.4 µM (not active) |  | 
CC1CCN(c2c(NCc3ccc(C(=O)N4CCc5ccccc54)cc3)c(=O)c2=O)CC1 |  |  |  |  | EC50 [8]: > 60 µM (not active); EC50 [9]: 12.3 µM (active); EC50 [10]: 8.86 µM (active); IC50 [11]: > 80 µM (inactive)
O=C(COC(=O)C(Cc1ccccc1)NC(=O)c1cccs1)NCc1ccccc1 (centres undefined) |  |  |  |  | IC50 (Melanocortin receptor 4): 38.6 µM (inactive); IC50 [4]: > 64.6 µM (inactive)
